Measurements as given in US20060194740A1, “NOD1 as an anti-tumor agent” (priority 2005, published 2006).
Blank lines part the entries; values can stand above or below the compound they belong to. Starred links: 1 amine or outer side, 2 acyl side, 3 side chain; linkers in the order of their positions; H or OH if unused. Non-standard residues stand in square brackets, D forms with d. Residues, ends and D or L forms follow the SMILES beside them. No end group written: not given here. *: point of attachment. mesoDAP = meso-diaminopimelic acid, O=C(O)[C@@H](CCC[C@H](N[*:1])C(=O)[*:2])N[*:3]; Diaminopimelic acid = diaminopimelic acid; Cbz = O=C(OCc1ccccc1)*; CH2F = FC*

Experiments:
MCF-7 Nod2 cells [1] = test: Propidium iodide apoptosis assay, MCF-7 Nod2 cells; assay type: cell-based, human; details: MDP plus CHX, 48 h (FIG. 5A)
Experimental: (§1) Cell viability assays. Propidium iodide exclusion assay: Cells were stimulated as indicated for 2 days. Subsequently, cells were harvested, washed twice in FACS buffer (PBS containing 1% FCS and 0.1% NaN3) and resuspended in propidium iodide (PI)—containing FACS buffer (4 ug/ml). The extent of cell death was analyzed with a FACSCalibur flow cytometer (Becton Dickinson, Mountain View, Calif.). DAPI staining: MCF-7 cells were plated in chamber slides, and stimulated for 2 days. Cells were washed with PBS and apoptotic nuclei were stained with 1 μg/ml DAPI (Sigma Chemical Co., St. Louis, Mo.). Cells were fixed in 4% paraformaldehyde and examined by fluorescence microscopy.
(§2) Experiments were also performed to ascertain whether activation of Nod2 by its specific activator, muramyl dipeptide (MDP), would initiate apoptosis in parental MCF-7 cells or in MCF-7 cells over-expressing Nod2 (MCF-7 Nod2). Thus, γTriDAP or MDP were added to each of these lines and apoptosis (FIG. 5A) and IL-8 production (FIG. 5C) were measured. […] Expression of Nod1 and Nod2 in MCF-7 stable transfectants was confirmed by immunoblotting (FIG. 5B).

MCF-7 Nod2 cells [2] = test: IL-8 secretion ELISA, MCF-7 Nod2 cells; assay type: cell-based, human; details: 24 h (FIG. 5C)
Experimental: IL-8 ELISA. Concentrations of IL-8 in the culture supernatants of transfected HeLa cells were measured by ELISA using 96-well Immunlon plates (Dynatech Laboratories, Chantilly, Va.). ELISA was performed using the mAb MAB208 for capture and a biotinylated polyclonal rabbit anti-human IL-8 Ab (R&D Systems, Minneapolis, Minn.) followed by streptavidin HRP for detection.
as §2

MCF-7 RIP2 KD cells = test: Propidium iodide apoptosis assay, MCF-7 RIP2 KD cells; assay type: cell-based, human; details: cells expressing RIP2 KD; 20 μg/ml, CHX, 48 hr (FIG. 13A)
Experimental: as §1
Several RIP2 mutants were stably expressed in MCF-7 cells to evaluate the role of the RIP2 kinase activity in γTriDAP-induced apoptosis. Expression of RIP2 lacking its CARD domain completely abrogated Nod1-induced cell death (FIG. 7A). […] Cells expressing wild type RIP2 and RIP2 KD constructs were sensitive to lower concentrations of γTriDAP and died faster than cells expressing only Nod1 (FIG. 13C) or than parental MCF-7Blasto cells (data not shown).

MCF-7 Nod1 cells = test: Propidium iodide exclusion cell death assay, MCF-7 Nod1 cells over-expressing Nod1; assay type: cell-based, human; details: for effect on γTriDAP-induced cell death: caspase inhibitor 50 uM, 30 min before γTriDAP/CHX for 48 h (FIG. 2D); for effect on γTriDAP-induced apoptosis: inhibitor 100 uM, 30 min prior to γTriDAP/CHX for 48 h (FIG. 6A)
Experimental: as §1
(§3) To further investigate the role of Nod1 in apoptosis, a variety of cell types were incubated with the Nod1 ligand, […] (γTriDAP), which specifically activates Nod1. The cell types tested included the parental MCF-7 cell line, the Nod1-deficient MCF-7C20 clone, and a cell line engineered to contain an additional human Nod1 allele (MCF-7Nod1) so that Nod1 was over-expressed. To determine whether the resistance of C20 cells to γTriDAP-induced apoptosis resulted from the absence of Nod1, human Nod1 was stably expressed in MCF-7 C20 cells to produce Nod1-sufficient C20 cells (C20/Nod1). As another control, the parental MCF-7 cell line was transfected with an empty retroviral vector to generate MCF-7 Blasto cells. Cells were treated with γTriDAP in the presence or absence of cycloheximide (CHX) and cell death was then determined by propidium iodide staining and flow cytometry.

MCF-7 cells = test: Propidium iodide exclusion cell death assay, wild-type (parental/Blasto) MCF-7 cells; assay type: cell-based, human; details: for sensitivity to cell death: parental versus C20 cells (data not shown)
Experimental: as §1, §3

MCF-7 C20 cells [3] = test: 3H-thymidine proliferation assay, MCF-7 C20 cells; assay type: cell-based, human; details: tamoxifen added in the culture medium (data not shown)
Experimental: Retroviral transfections. The various genes used in this study were cloned into pMSCV-Blasto, pBabe-Puro or pBabe-Neo retroviral vectors. MCF-7 cells were stably transfected using available procedures. Briefly, amphotropic 293 cells were transfected with retroviral vectors encoding selected Nod1, Nod2 and other proteins. Twenty-four hours post-transfection, cells were incubated at 32° C. overnight to produce viral particles. Target cells were infected the next day with virus-containing 293 cell supernatants containing recombinant retroviral particles. Cells were selected with 10 μg/ml blasticidin S (Calbiochem EMD Biosciences Inc., San Diego, Calif.), 500 μg/ml […] (Invitrogen, Carlsbad, Calif.) or 5 μg/ml puromycin (Calbiochem). The expression of all constructs was confirmed by Western blot analysis. To determine the effects of 17β-estradiol (Calbiochem), cells were cultured in phenol red-free DMEM supplemented with […]. Cells were seeded in 96 well plates with various concentration of 17β-estradiol (E2) for 24 h and pulsed with ^3H-thymidine (1 μCi/well, MP Biomedicals, Irvine, Calif.). Cells were harvested on glass fiber filters and radioactivity measured by liquid scintillation. […]

MCF-7 C20 cells [4] = test: Propidium iodide exclusion cell death assay, Nod1-deficient MCF-7 C20 cells; assay type: cell-based, human
Experimental: as §1, with “Propidium iodide exclusion assay: Cells were stimulated as indicated for 2 days.” left out
as §3

MCF-7 C20/Nod1 cells = test: Propidium iodide exclusion apoptosis assay, MCF-7 C20/Nod1 cells; assay type: cell-based, human; details: γTriDAP/CHX (FIG. 12A)
Experimental: as §1, §3
To determine whether the presence of estrogens modulates Nod1-induced apoptotic pathway, cells were cultured in medium containing charcoal-treated serum.

[5] = tested on: poly(ADP-ribose)polymerase (PARP) and capases 6, 7, 8 and 9; test: Western blot of PARP and caspase cleavage in MCF-7 cells; assay type: cell-based, human; details: 24 h (FIG. 3)
Experimental: (§4) Western blot analysis and immunoprecipitation. Cells were washed extensively and lysed using lysis buffer containing 50 mM Hepes, 100 mM NaCl, 2 mM EDTA, 10% glycerol, 1% Nonidet P-40, 14 μM pepstatin A, 100 uM leupeptin, 3 mM benzamidine, 1 mM PMSF, 1 mM sodium pyrophosphate, 10 mM sodium orthovanadate, 100 U/ml aprotinin, and 100 mM sodium fluoride. After incubation for 30 min on ice, cell lysates were centrifuged (14000 rpm, 10 min, 4° C.) and the supernatants were recovered. For immunoprecipitation, cell lysates were mixed with 5 μg of antibody for 3 hour at 4° C. under constant agitation. Immune complexes were allowed to bind to 20 μl protein A-Sepharose beads overnight, beads were washed three times with lysis buffer. Immunoprecipitates were separated on SDS-PAGE and transferred to PVDF membranes.
Further confirmation that γTriDAP induces apoptosis was obtained using two broad spectrum caspase inhibitors, z-VAD-FMK and Boc-D-FMK. Both z-VAD-FMK and Boc-D-FMK abrogated γTriDAP-induced cell death (FIG. 2D).

JNK = JNK phosphorylation in MCF-7 RIP2 transfectants; assay type: cell-based, human; details: γTriDAP with cycloheximide for 2 h in wild type RIP2 or RIP2 KD cells (FIG. 7C)
Experimental: as §4
The effect of RIP2 expression on γTriDAP-induced JNK phosphorylation was also examined (FIG. 7C).

MCF-7C20 cells = test: IL-8 production, MCF-7C20 cells; assay type: cell-based, human; details: MCF-7C20 cells (data not shown)
MCF7-C20Nod1 cells = test: IL-8 production, MCF7-C20Nod1 cells; assay type: cell-based, human; details: wild-type Nod1 expressed in MCF7-C20Nod1 cells (FIG. 5C)
Myc-NOD1 (human) = Myc-NOD1 (human) (UniProt Q9Y239); test: cell-based or functional assay
[6] = target: endogenous NOD1 protein of parental MCF-7 cells (human) (UniProt Q9Y239); test: cell-based or functional assay
[7] = target: human Nod1 stably expressed in cell lines (human) (UniProt Q9Y239); test: cell-based or functional assay
SK-BR3 = test: Apoptosis by PI staining, SK-BR3 cells stably expressing Nod1; assay type: cell-based, human; details: SKBR3 cells; αTriDAP substituted for γTriDAP, with TNFα and cycloheximide (FIG. 9B)
Experimental: as §1
To determine if Nod1-dependent apoptosis occurs in other human cell lines, a series of epithelial cell lines were examined where Nod1 was stably expressed to enhance sensitivity to activation of the Nod1 pathway. Cells were treated with TNFα (T) and γTriDAP (γ) in the presence or absence of CHX (C) and monitored for viability by PI staining as a measure of apoptosis (Table 1).

[8] = agent alone, wild type cells (FIG. 2A)

Compound: CC(=O)N[C@H]1C(O)O[C@H](CO)[C@@H](O)[C@@H]1O[C@H](C)C(=O)N[C@@H](C)C(=O)N[C@H](CCC(=O)O)C(N)=O (mixture of isomers) [MDP, muramyl dipeptide]
apoptosis (MCF-7 Nod2 cells [1]): did not undergo increased apoptosis
IL-8 secretion (MCF-7 Nod2 cells [2]): did result in IL-8 secretion
apoptosis (MCF-7 RIP2 KD cells): effective at inducing high levels of apoptosis

Compound: COC(=O)CC(NC(=O)OC(C)(C)C)C(=O)CF [Boc-D-FMK]
effect on γTriDAP-induced cell death (MCF-7 Nod1 cells): abrogated

Compound: CC[C@@]1(O)C(=O)OCc2c1cc1n(c2=O)Cc2cc3ccccc3nc2-1 [camptothecin]
sensitivity to cell death (MCF-7 cells): equally sensitive

Compound: C[C@@H]1C[C@@H]([C@H](O)CC2CC(=O)NC(=O)C2)C(=O)[C@@H](C)C1 [cycloheximide]
cell death (MCF-7 cells; [8]): No cell death

Compound: COc1cccc2c1C(=O)c1c(O)c3c(c(O)c1C2=O)C[C@@](O)(C(=O)CO)C[C@@H]3O[C@H]1C[C@H](N)[C@H](O)[C@H](C)O1 [doxirubicin]
sensitivity to cell death (MCF-7 cells): equally sensitive

Compound: CC/C(=C(\c1ccccc1)c1ccc(OCCN(C)C)cc1)c1ccccc1 [tamoxifen, reference compound]
effect on γTriDAP-induced cell death (MCF-7 cells; tamoxifen prior to γTriDAP/CHX, MCF-7 cell lines (FIG. 12B)): partially blocked
effect on estrogen-induced proliferation (MCF-7 C20 cells [3]): blocked

Compound: COC(=O)C[C@H](NC(=O)[C@H](C)NC(=O)[C@@H](NC(=O)OCc1ccccc1)C(C)C)C(=O)CF [z-VAD-FMK] (Cbz-Val-Ala-Asp(OMe)-CH2F)
effect on γTriDAP-induced cell death (MCF-7 Nod1 cells): abrogated
effect on γTriDAP-induced apoptosis (MCF-7 Nod1 cells): blocked γTriDAP-induced apoptosis nearly completely

Compound: D-Ala-L-Glu-Diaminopimelic acid ([dA]-Glu-[Diaminopimelic acid]; also: Glu gamma-carboxyl linked to DAP (γTriDAP))
cell death (MCF-7 cells; [8]): No cell death
cell death (MCF-7 cells; γTriDAP in the presence of cycloheximide, wild-type MCF-7, PI staining, flow cytometry (FIG. 2A)): about 25%
apoptosis (MCF-7 C20 cells [4]; γTriDAP plus cycloheximide, MCF-7C20 without Nod1 expression): totally resistant
cell death (MCF-7 Nod1 cells; combination of cycloheximide and γTriDAP, 48 h treatment, MCF-7Nod1 cells): ~60%
γTriDAP-induced apoptosis (MCF-7 C20/Nod1 cells; with steroids): 80%
γTriDAP-induced apoptosis (MCF-7 C20/Nod1 cells; without steroids (charcoal-treated serum)): 10%
proteolytic cleavage of PARP and capases 6, 7, 8 and 9 [5]: resulted in proteolytic cleavage
phosphorylation of JNK (JNK): induced phosphorylation of JNK
γTriDAP-induced IL-8 production (MCF-7C20 cells): inhibited
γTriDAP-induced IL-8 production (MCF7-C20Nod1 cells): restored

γTriDAP-induced apoptosis; C20/Nod1 cells cultured with steroids [7]: 80%
γTriDAP-induced apoptosis; C20/Nod1 cells cultured without steroids [7]: 10%
Compound: D-Ala-L-Glu-Diaminopimelic acid (γTriDAP) (peptide)
cell death by propidium iodide staining and flow cytometry; MCF-7Nod1 cells, γTriDAP with cycloheximide, 48 h (Myc-NOD1 (human)): 60%
cell death by propidium iodide staining and flow cytometry; wild-type MCF-7 cells, γTriDAP with cycloheximide [6]: 25%

Compound: IETD
effect on γTriDAP-induced apoptosis (MCF-7 Nod1 cells): marked inhibitory effects

Compound: TNFα
TNFα-induced apoptosis (MCF-7 C20 cells [4]; MCF-7 C20 versus parent MCF-7 cells, TNF 0-40 ng/ml, 20 h (FIG. 1C)): significantly more resistant

Compound: αTriDAP: inactive control tri-peptide where mesoDAP was bound to Glu in the a position rather than in the γ position (Ala-Glu-[mesoDAP]; not fully specified (residue 1); also: DAP bound to Glu alpha-carboxyl (αTriDAP))
cell death (MCF-7 cells; incubated with MCF-7 cells in the presence of cycloheximide (FIG. 2A)): did not induce cell death
proteolytic cleavage of PARP and capases 6, 7, 8 and 9 [5]: not
apoptosis (SK-BR3): reduced apoptosis
